This note sets out measurements from patent US20190177284A1, “TETRAZOLYL-CONTAINING CYCLOPROPANECARBOXAMIDES” (Bayer Pharma Aktiengesellschaft, priority 2017, published 2019).

SMILES strings stand for the structures.

In general, IC50 refers to the point on the concentration scale where inhibition reaches its midpoint.

The target in the assay is T1, human Bradykinin B1 receptor (Homo sapiens, UniProt P46663).
T1 construct: host or cells: CHO-K1
T1 sequence (P46663 1-353): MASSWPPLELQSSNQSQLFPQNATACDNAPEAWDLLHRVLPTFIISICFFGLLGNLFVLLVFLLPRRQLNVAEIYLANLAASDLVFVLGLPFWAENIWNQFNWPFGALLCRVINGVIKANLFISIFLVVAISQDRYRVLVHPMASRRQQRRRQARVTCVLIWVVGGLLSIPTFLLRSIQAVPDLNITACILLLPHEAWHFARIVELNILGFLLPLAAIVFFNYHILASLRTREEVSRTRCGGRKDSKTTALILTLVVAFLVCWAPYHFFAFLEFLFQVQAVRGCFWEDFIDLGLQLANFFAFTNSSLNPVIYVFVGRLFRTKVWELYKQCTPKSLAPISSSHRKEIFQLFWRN
Kind of assay: Calcium flux Assay (FLIPR) with cells expressing human Bradykinin B1 receptor (hB1). It counts as cell-based. The conditions noted are these: absence of 0.1% BSA in assay buffer; CHO-K1 cell line expressing human B1 receptor; agonist Lys-(Des-Arg)-Bradykinin; read-out: hB1 free IC50. The procedure: The potency to inhibit the Bradykinin B1 receptor was determined for the compound examples of this invention in a cell-based fluorescent calcium-mobilisation assay. The assay measures the ability of compound examples to inhibit Bradykinin B1 receptor agonist-induced increase of intracellular free Ca^2+ in the cell line expressing Bradykinin B1 receptor. Specifically, calcium indicator-loaded cells are pre-incubated in the absence or presence of different concentrations of compound examples followed by the stimulation with a selective Bradykinin B1 receptor agonist peptide. The change of the intracellular Ca^2+ concentration is monitored with a fluorescent plate reader FLIPR^TETRA®
Calcium flux Assays (FLIPR) with cells expressing human Bradykinin B1 receptor (hB1) Calcium flux Assay (FLIPR) with recombinant cells for Bradykinin B1 receptor antagonist, either in the presence (hB1 IC50) or absence (hB1 free IC50) of 0.1% Bovine Serum Albumin (BSA) in assay buffer.
CHO—K1 cell line expressing human B1 receptor was purchased from Euroscreen (Gosselies, Belgium, with reference name hB1-D1). The cells were grown in Nutrient Mixture Ham's F12 (Sigma) containing 10% Foetal bovine serum (Sigma) and 400 μg/mL G418 (Sigma), 5 μg/mL puromycin (Sigma).
For the calcium flux assay, 80% confluent cells were detached from the culture vessels with Versene (Gibco), and seeded into 384-well plates (Cell binding Surface; Corning, N.Y.; #3683) at a density of 15,000 cells per well. Cells were seeded in a volume of 50 μL in medium without antibiotics and incubated overnight in a humidified atmosphere with 5% CO2 at 37° C. […] The calcium indicator loaded cells were incubated at 37° C. for 2 hrs. Extracellular dye was then removed and each well was filled with 45 μL of assay buffer. Cell plates were kept in dark until used. Example compounds were assayed at 8 concentrations in triplicate. Serial 10-fold dilutions in 100% DMSO were made at a 100-times higher concentration than the final concentration, and then diluted 1:10 in assay buffer. 5 μL of each diluted compound was added to the well of cell plates (yielding final concentration with 1% DMSO), and incubated for 30 min at 28° C. before the addition of B1 receptor agonist on the FLIPR instrument.
Agonist plates contained the agonist Lys-(Des-Arg)-Bradykinin (Bachem, Brackley) at 3.5×EC90 in assay buffer with 1% DMSO. The addition of agonist 20 μl per well to the assay plate was carried out on the FLIPR instrument while continuously monitoring Ca^2+-dependent fluorescence at 538 nm. A peptide antagonist Lys-(Des-Arg-Leu)-Bradykinin (Bachem, Brackley) at 20 μM was used to determine the full inhibition as control.
Peak fluorescence was used to determine the response to agonist obtained at each concentration of example compound by the following equation:
% Response=100*(RFU(example compound)−RFU(control))/(RFU(DMSO)−RFU(control)) • RFU means relative fluorescence units. • Control means full inhibition by the peptide antagonist Lys-(Des-Arg-Leu)-Bradykinin at 20
The response values were plotted against the logarithm of the example compound concentrations. The example compounds were tested in triplicates per plate and mean values were plotted in Excel XLfit to determine IC50 values, percentage of maximal inhibition and the Hill slopes.
IC50 values of example compounds in Calcium flux Assay (FLIPR) as shown in table 1 were determined according to the protocol described above in the absence of 0.1% BSA in assay buffer.
For the compound `CC1(OC(=O)c2ccc(NC(=O)C3(c4ccc(C(F)(F)F)cc4F)CC3)cc2-c2nnn[nH]2)CCCC1` [Example 14, 1-Methylcyclopentyl 4-[({1-[2-fluoro-4-(trifluoromethyl)phenyl]cyclopropyl}-carbonyl)amino]-2-(1H-tetrazol-5-yl)benzoate], the IC50 was 999 nM.

As for `O=C(O[C@@H]1CCOC1)c1ccc(NC(=O)C2(c3ccc(C(F)(F)F)cc3F)CC2)cc1-c1nnn[nH]1` [Example 20, (3R)-Tetrahydrofuran-3-yl 4-[({1-[2-fluoro-4-(trifluoromethyl)phenyl]cyclopropyl}carbonyl)amino]-2-(1H-tetrazol-5-yl)benzoate], the 50% inhibitory concentration (IC50) was determined as 14 nM.

As for `O=C(OC1CCCC1)c1c(F)cc(NC(=O)C2(c3ccc(C(F)(F)F)cc3F)CC2)cc1-c1nnn[nH]1` [Example 61, Cyclopentyl 2-fluoro-4-[({1-[2-fluoro-4-(trifluoromethyl)phenyl]cyclopropyl}-carbonyl)amino]-6-(1H-tetrazol-5-yl)benzoate], the concentration for half-maximal inhibition (IC50) came to 2 nM.

For `O=C(OC1CCCC1)c1ccc(NC(=O)C2(c3ccc(C(F)(F)F)cc3F)CC2)cc1-c1nnn[nH]1` [Example 6, Cyclopentyl 4-[({1-[2-fluoro-4-(trifluoromethyl)phenyl]cyclopropyl}carbonyl)amino]-2-(1H-tetrazol-5-yl)benzoate], the IC50 was found to be 9 nM.

Regarding `Cc1ccc(NC(=O)c2ccc(NC(=O)C3(c4ccc(C(F)(F)F)cc4F)CC3)cc2-c2nnn[nH]2)nc1` [Example 56, 4-[({1-[2-Fluoro-4-(trifluoromethyl)phenyl]cyclopropyl}carbonyl)amino]-N-(5-methylpyridin-2-yl)-2-(1H-tetrazol-5-yl)benzamide], the IC50 was determined as 50 nM.

For `CC(C)CN(C)C(=O)c1ccc(NC(=O)C2(c3ccc(C(F)(F)F)cc3F)CC2)cc1-c1nnn[nH]1` [Example 55, 4-[({1-[2-Fluoro-4-(trifluoromethyl)phenyl]cyclopropyl}carbonyl)amino]-N-isobutyl-N-methyl-2-(1H-tetrazol-5-yl)benzamide], the concentration for half-maximal inhibition (IC50) came to 1770 nM.

With `Cc1cc(NC(=O)C2(c3ccc(C(F)(F)F)cc3F)CC2)cc(-c2nnn[nH]2)c1C(=O)OC1CCCC1` [Example 64, Cyclopentyl 4-[({1-[2-fluoro-4-(trifluoromethyl)phenyl]cyclopropyl}carbonyl)amino]-2-methyl-6-(1H-tetrazol-5-yl)benzoate], the IC50 came to 25 nM.

For `CCC(C)OC(=O)c1ccc(NC(=O)C2(c3ccc(C(F)(F)F)cc3F)CC2)cc1-c1nnn[nH]1` (racemic) [Example 10, sec-Butyl 4-[({1-[2-fluoro-4-(trifluoromethyl)phenyl]cyclopropyl}carbonyl)amino]-2-(1H-tetrazol-5-yl)benzoate], the IC50 was determined as 4 nM.

Turning to `CCOC(=O)c1ccc(NC(=O)C2(c3cccc(Cl)c3)CC2)cc1-c1nnn[nH]1` [Example 1, Ethyl 4-({[1-(3-chlorophenyl)cyclopropyl]carbonyl}amino)-2-(1H-tetrazol-5-yl)benzoate], the IC50 was 136 nM.

Regarding `CCC(C)OC(=O)c1ccc(NC(=O)C2(c3ccc(F)c(F)c3)CC2)cc1-c1nnn[nH]1` (racemic) [Example 8, sec-Butyl 4-({[1-(3,4-difluorophenyl)cyclopropyl]carbonyl}amino)-2-(1H-tetrazol-5-yl)benzoate], the 50% inhibitory concentration (IC50) was 21 nM.

On to `CC[C@@H](C)NC(=O)c1ccc(NC(=O)C2(c3ccc(C(F)(F)F)cc3F)CC2)cc1-c1nnn[nH]1` [Example 37, N-[(2R)-butan-2-yl]-4-[({1-[2-fluoro-4-(trifluoromethyl)phenyl]cyclopropyl}carbonyl)amino]-2-(1H-tetrazol-5-yl)benzamide], for which the IC50 turned out to be 121 nM.

Take `CCC(C)OC(=O)c1ccc(NC(=O)C2(c3ccc(OC(F)(F)F)cc3F)CC2)cc1-c1nnn[nH]1` (racemic) [Example 11, sec-Butyl 4-[({1-[2-fluoro-4-(trifluoromethoxy)phenyl]cyclopropyl}carbonyl)amino]-2-(1H-tetrazol-5-yl)benzoate]: the IC50 stood at 3 nM.

Consider `CC[C@H](C)NC(=O)c1ccc(NC(=O)C2(c3ccc(C(F)(F)F)cc3F)CC2)cc1-c1nnn[nH]1` [Example 38, N-[(2S)-butan-2-yl]-4-[({1-[2-fluoro-4-(trifluoromethyl)phenyl]cyclopropyl}carbonyl)amino]-2-(1H-tetrazol-5-y)benzamide], for which the IC50 turned out to be 80 nM.

`COC[C@H](C)NC(=O)c1ccc(NC(=O)C2(c3ccc(C(F)(F)F)cc3F)CC2)cc1-c1nnn[nH]1` [Example 51, 4-[({1-[2-Fluoro-4-(trifluoromethyl)phenyl]cyclopropyl}carbonyl)amino]-N-[(2S)-1-methoxypropan-2-yl]-2-(1H-tetrazol-5-yl)benzamide]: the IC50 was 409 nM.

With `CCC(C)(C)OC(=O)c1ccc(NC(=O)C2(c3ccc(C(F)(F)F)cc3F)CC2)cc1-c1nnn[nH]1` [Example 15, 2-Methylbutan-2-yl 4-[({1-[2-fluoro-4-(trifluoromethyl)phenyl]cyclopropyl}carbonyl)amino]-2-(1H-tetrazol-5-yl)benzoate], the IC50 stood at 5220 nM.

Take `CN(C(=O)c1ccc(NC(=O)C2(c3ccc(C(F)(F)F)cc3F)CC2)cc1-c1nnn[nH]1)C1CCCCC1` [Example 43, N-cyclohexyl-4-[({1-[2-fluoro-4-(trifluoromethyl)phenyl]cyclopropyl}carbonyl)amino]-N-methyl-2-(1H-tetrazol-5-yl)benzamide]: the IC50 amounted to 50 nM.

`CCC(C)OC(=O)c1ccc(NC(=O)C2(c3cccc(Cl)c3)CC2)cc1-c1nnn[nH]1` (racemic) [Example 3, sec-Butyl 4-({[1-(3-chlorophenyl)cyclopropyl]carbonyl}amino)-2-(1H-tetrazol-5-yl)benzoate]: the IC50 is 10 nM.

As to `O=C(NC1CCOCC1)c1ccc(NC(=O)C2(c3ccc(C(F)(F)F)cc3F)CC2)cc1-c1nnn[nH]1` [Example 45, 4-[({1-[2-Fluoro-4-(trifluoromethyl)phenyl]cyclopropyl}carbonyl)amino]-N-(tetrahydro-2H-pyran-4-yl)-2-(1H-tetrazol-5-yl)benzamide], the IC50 worked out at 133 nM.

`COC(C)COC(=O)c1ccc(NC(=O)C2(c3ccc(C(F)(F)F)cc3F)CC2)cc1-c1nnn[nH]1` (racemic) [Example 31, 2-Methoxypropyl 4-[({1-[2-fluoro-4-(trifluoromethyl)phenyl]cyclopropyl}carbonyl)amino]-2-(1H-tetrazol-5-yl)benzoate]: the IC50 was determined as 9 nM.

For the compound `O=C(OC1CCCC1)c1ccc(NC(=O)C2(c3cccc(Cl)c3)CC2)cc1-c1nnn[nH]1` [Example 2, Cyclopentyl 4-({[1-(3-chlorophenyl)cyclopropyl]carbonyl}amino)-2-(1H-tetrazol-5-yl)benzoate], the concentration for half-maximal inhibition (IC50) was 21 nM.

For `CC[C@@H](C)OC(=O)c1ccc(NC(=O)C2(c3ccc(OC(F)(F)F)cc3F)CC2)cc1-c1nnn[nH]1` [Example 26, (2R)-Butan-2-yl 4-[({1-[2-fluoro-4-(trifluoromethoxy)phenyl]cyclopropyl}carbonyl)amino]-2-(1H-tetrazol-5-yl)benzoate], the IC50 worked out at 3 nM.

On to `COC(C)(C)CNC(=O)c1ccc(NC(=O)C2(c3ccc(C(F)(F)F)cc3F)CC2)cc1-c1nnn[nH]1` [Example 52, 4-[({1-[2-Fluoro-4-(trifluoromethyl)phenyl]cyclopropyl}carbonyl)amino]-N-(2-methoxy-2-methylpropyl)-2-(1H-tetrazol-5-yl)benzamide], for which the half-inhibitory concentration (IC50) stood at 143 nM.
